Laboratory results as given in patent US5114918A, “Endothelin antagonistic cyclic pentapeptides” (Banyu Pharmaceutical Co., Ltd., priority 1989, dated 1992).
Square brackets hold non-standard residues; d marks the D form. Peptide text beside a SMILES is read from it. dCya = N[C@H](CS(=O)(=O)O)C(=O)O; dPhg = N[C@@H](C(=O)O)c1ccccc1; dNle = CCCC[C@@H](N)C(=O)O; dNva = CCC[C@@H](N)C(=O)O; NMeA = CN[C@@H](C)C(=O)O; Nle = CCCC[C@H](N)C(=O)O; Orn = NCCC[C@H](N)C(=O)O

Target: T1, endothelin receptor (membrane of smooth muscle tissue of porcine aorta) (Sus scrofa, UniProt Q29010)
T1 construct: from tissue; host or cells: smooth muscle tissue of porcine aorta (membrane fraction)
T1 sequence (Q29010 21-427): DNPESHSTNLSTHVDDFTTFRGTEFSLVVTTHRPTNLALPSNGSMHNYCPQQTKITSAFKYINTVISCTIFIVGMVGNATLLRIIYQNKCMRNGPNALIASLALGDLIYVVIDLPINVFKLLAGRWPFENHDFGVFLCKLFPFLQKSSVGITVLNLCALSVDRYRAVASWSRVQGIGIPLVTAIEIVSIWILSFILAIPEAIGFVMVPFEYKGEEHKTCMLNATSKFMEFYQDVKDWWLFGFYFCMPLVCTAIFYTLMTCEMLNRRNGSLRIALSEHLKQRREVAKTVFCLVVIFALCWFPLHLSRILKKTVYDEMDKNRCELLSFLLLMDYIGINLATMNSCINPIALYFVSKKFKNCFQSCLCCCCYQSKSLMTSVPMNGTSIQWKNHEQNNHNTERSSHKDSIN
Assay: Endothelin binding inhibition test (125I-endothelin-1, porcine aorta smooth muscle membrane)
Details: 1.1 μM of the test compound; porcine aorta smooth muscle membrane; 25° C, 4 hours; read-out: 125I-endothelin-1 binding inhibition, Inhibition (%)
Procedure: Endothelin binding inhibition test
The smooth muscle tissue of porcine aorta was homogenized in a buffer solution of 10 mM MOPS, pH 7.4, at 4° C. by a polytron. To the homogenate, sucrose was added to a concentration of 20%, and the mixture was centrifuged at 1,000×g for 15 minutes, and the supernatant was further centrifuged at 10,000×g for 15 minutes. The supernatant thereof was further centrifuged at 90,000×g for 40 minutes. The membrane precipitate thereby obtained was suspended in a buffer solution of 5 mM HEPES/Tris, pH 7.4, at a concentration of 25 mg/ml.
Then, 16 μl of this membrane suspension was added to 340 μl of 50 mM Tris/HCl buffer, pH 7.4, containing 10 μM calcium chloride, 10 μM magnesium chloride, 0.1 mM PMSF, 1 μM pepstatin A, 2 μM leupeptin, 1 mM 1,10-phenanthroline and 0.1% bovine serum albumin. To this suspension, 4 μl of (A) endothelin-1 (for nonspecific binding: 0.2 μM as the final concentration), (B) buffer solution A (for total control binding), or (C) a test compound (1.1 μM as the final concentration), was added. Further, to each suspension, 40 μl of ^125 I-endothelin-1 (12000-18000 cpm) was added. These mixtures were incubated at 25° C for 4 hours, then subjected to filtration on a glass filter GF/C and then washed with 5 mM HEPES/Tris, pH 7.4, containing 0.3% bovine serum albumin. Then, the radioactivity trapped by the glass filter was measured, and the ^125 I-endothelin-1 binding inhibition D (%) at 1.1 μM of the test compound was determined by the following equation. [formula] Each test was performed in triplicate.

SMILES	inhibition at 1.1 µM
CC(C)C[C@@H]1NC(=O)[C@@H](C(C)C)NC(=O)[C@H](CO)NC(=O)[C@@H](CCC(=O)O)NC(=O)[C@@H](Cc2c[nH]c3ccccc23)NC1=O [Example 1, cyclo(-DTrp-DGlu-Ser-DVal-Leu-)] (cyclo(L[dW][dE]S[dV]))	19%
CC(C)C[C@@H]1NC(=O)[C@@H](C(C)C)NC(=O)[C@H](C)NC(=O)[C@@H](CS(=O)(=O)O)NC(=O)[C@@H](Cc2c[nH]c3ccccc23)NC1=O [Example 2, cyclo(-DTrp-DCys(O3 Na)-Ala-DVal-Leu-)] (cyclo(A[dV]L[dW][dCya]))	78%
CC(C)C[C@@H]1NC(=O)[C@@H](C(C)C)NC(=O)[C@H](CCCCN)NC(=O)[C@@H](CC(=O)O)NC(=O)[C@@H](Cc2c[nH]c3ccccc23)NC1=O [Example 4, cyclo(-DTrp-DAsp-Lys-DVal-Leu-)] (cyclo(K[dV]L[dW][dD]))	74%
CCCC[C@@H]1NC(=O)[C@@H](C(C)C)NC(=O)[C@@H]2CCCN2C(=O)[C@@H](CS(=O)(=O)O)NC(=O)[C@@H](Cc2c[nH]c3ccccc23)NC1=O [Example 5, cyclo(-DTrp-DCys(O3 Na)-Pro-DVal-Nle-)] (cyclo([Nle][dW][dCya]P[dV]))	81%
CC(C)C[C@@H]1NC(=O)[C@@H](CC(=O)O)NC(=O)[C@@H](Cc2c[nH]c3ccccc23)NC(=O)[C@H](CC(C)C)NC(=O)[C@@H](C(C)C)NC1=O [Example 6, cyclo(-DTrp-DAsp-Leu-DVal-Leu-)] (cyclo(L[dV]L[dW][dD]))	72%
CC(C)C[C@@H]1NC(=O)[C@@H](C(C)C)NC(=O)[C@H](C)NC(=O)[C@@H](CCC(=O)O)NC(=O)[C@@H](Cc2c[nH]c3ccccc23)NC1=O [Example 7, cyclo(-DTrp-DGlu-Ala-DVal-Leu-)] (cyclo(A[dV]L[dW][dE]))	27%
CC(C)C[C@@H]1NC(=O)[C@@H](C(C)C)NC(=O)[C@H](CC(=O)O)NC(=O)[C@@H](CCC(=O)O)NC(=O)[C@@H](Cc2c[nH]c3ccccc23)NC1=O [Example 9, cyclo(-DTrp-DGlu-Asp-DVal-Leu-)] (cyclo(D[dV]L[dW][dE]))	30%
CC(C)C[C@@H]1NC(=O)[C@@H](C(C)C)NC(=O)[C@@H]2CCCN2C(=O)[C@@H](CCC(=O)O)NC(=O)[C@@H](Cc2c[nH]c3ccccc23)NC1=O [Example 10, cyclo(-DTrp-DGlu-Pro-DVal-Leu-)] (cyclo(L[dW][dE]P[dV]))	54%
CC(C)C[C@@H]1NC(=O)[C@@H](C(C)C)NC(=O)CNC(=O)[C@@H](CC(=O)O)NC(=O)[C@@H](Cc2c[nH]c3ccccc23)NC1=O [Example 11, cyclo(-DTrp-DAsp-Gly-DVal-Leu-)] (cyclo(G[dV]L[dW][dD]))	74%
CC(C)C[C@@H]1NC(=O)[C@@H](C(C)C)NC(=O)[C@H](C)N(C)C(=O)[C@@H](CC(=O)O)NC(=O)[C@@H](Cc2c[nH]c3ccccc23)NC1=O [Example 13, cyclo(-DTrp-DAsp-MeAla-DVal-Leu-)] (cyclo(L[dW][dD][NMeA][dV]))	85%
CSCC[C@@H]1NC(=O)[C@@H](CC(=O)O)NC(=O)[C@@H](Cc2c[nH]c3ccccc23)NC(=O)[C@H](CC(C)C)NC(=O)[C@@H](C(C)C)NC1=O [Example 14, cyclo(-DTrp-DAsp-Met-DVal-Leu-)] (cyclo(L[dW][dD]M[dV]))	75%
CC(C)C[C@@H]1NC(=O)[C@@H](C(C)C)NC(=O)[C@H](Cc2ccc(O)cc2)NC(=O)[C@@H](CC(=O)O)NC(=O)[C@@H](Cc2c[nH]c3ccccc23)NC1=O [Example 16, cyclo(-DTrp-DAsp-Tyr-DVal-Leu-)] (cyclo(L[dW][dD]Y[dV]))	77%
CC(C)C[C@@H]1NC(=O)[C@@H](C(C)C)NC(=O)[C@H](Cc2c[nH]c3ccccc23)NC(=O)[C@@H](CC(=O)O)NC(=O)[C@@H](Cc2c[nH]c3ccccc23)NC1=O [Example 17, cyclo(-DTrp-DAsp-Trp-DVal-Leu-)] (cyclo(L[dW][dD]W[dV]))	75%
CC(C)C[C@@H]1NC(=O)[C@@H](C(C)C)NC(=O)[C@H](Cc2c[nH]cn2)NC(=O)[C@@H](CC(=O)O)NC(=O)[C@@H](Cc2c[nH]c3ccccc23)NC1=O [Example 18, cyclo(-DTrp-DAsp-His-DVal-Leu-)] (cyclo(H[dV]L[dW][dD]))	69%
CC(C)C[C@@H]1NC(=O)[C@@H](C(C)C)NC(=O)[C@H](CCCNC(=N)N)NC(=O)[C@@H](CC(=O)O)NC(=O)[C@@H](Cc2c[nH]c3ccccc23)NC1=O [Example 19, cyclo(-DTrp-DAsp-Arg-DVal-Leu-)] (cyclo(L[dW][dD]R[dV]))	70%
CC(C)C[C@@H]1NC(=O)[C@@H](C(C)C)NC(=O)[C@H](CCCN)NC(=O)[C@@H](CC(=O)O)NC(=O)[C@@H](Cc2c[nH]c3ccccc23)NC1=O [Example 20, cyclo(-DTrp-DAsp-Orn-DVal-Leu-)] (cyclo(L[dW][dD][Orn][dV]))	65%
CC(C)C[C@@H]1NC(=O)[C@@H](C(C)C)NC(=O)[C@H](CCC(N)=O)NC(=O)[C@@H](CC(=O)O)NC(=O)[C@@H](Cc2c[nH]c3ccccc23)NC1=O [Example 21, cyclo(-DTrp-nAsp-Gln-DVal-Leu-)] (cyclo(L[dW][dD]Q[dV]))	73%
CC(C)C[C@@H]1NC(=O)[C@@H](C(C)C)NC(=O)[C@H](CC(=O)O)NC(=O)[C@@H](CC(=O)O)NC(=O)[C@@H](Cc2c[nH]c3ccccc23)NC1=O [Example 22, cyclo(-DTrp-DAsp-Asp-DVal-Leu-)] (cyclo(D[dV]L[dW][dD]))	75%
CC(C)C[C@@H]1NC(=O)[C@@H](C(C)C)NC(=O)[C@H](CCC(=O)O)NC(=O)[C@@H](CC(=O)O)NC(=O)[C@@H](Cc2c[nH]c3ccccc23)NC1=O [Example 23, cyclo(-DTrp-DAsp-Glu-DVal-Leu-)] (cyclo(E[dV]L[dW][dD]))	72%
CC(C)C[C@@H]1NC(=O)[C@@H](C(C)C)NC(=O)[C@H](CS)NC(=O)[C@@H](CC(=O)O)NC(=O)[C@@H](Cc2c[nH]c3ccccc23)NC1=O [Example 25, cyclo(-DTrp-DAsp-Cys-DVal-Leu-)] (cyclo(C[dV]L[dW][dD]))	74%
CC(C)C[C@@H]1NC(=O)[C@@H](C(C)C)NC(=O)[C@H](CO)NC(=O)[C@@H](CC(=O)O)NC(=O)[C@@H](Cc2c[nH]c3ccccc23)NC1=O [Example 26, cyclo(-DTrp-DAsp-Ser-DVal-Leu-)] (cyclo(L[dW][dD]S[dV]))	75%
CC(C)C[C@@H]1NC(=O)[C@@H](C(C)C)NC(=O)[C@H]([C@@H](C)O)NC(=O)[C@@H](CC(=O)O)NC(=O)[C@@H](Cc2c[nH]c3ccccc23)NC1=O [Example 27, cyclo(-DTrp-DAsp-Thr-DVal-Leu-)] (cyclo(L[dW][dD]T[dV]))	66%
CC(C)C[C@@H]1NC(=O)[C@@H](CC(C)C)NC(=O)[C@H](C)NC(=O)[C@@H](CC(=O)O)NC(=O)[C@@H](Cc2c[nH]c3ccccc23)NC1=O [Example 28, cyclo(-DTrp-DAsp-Ala-DLeu-Leu-)] (cyclo(A[dL]L[dW][dD]))	51%
CC(C)C[C@@H]1NC(=O)[C@@H]([C@H](C)O)NC(=O)[C@H](C)NC(=O)[C@@H](CC(=O)O)NC(=O)[C@@H](Cc2c[nH]c3ccccc23)NC1=O [Example 29, cyclo(-DTrp-DAsp-Ala-DThr-Leu-)] (cyclo(A[dT]L[dW][dD]))	15%
CC[C@@H](C)[C@H]1NC(=O)[C@@H]2CCCN2C(=O)[C@@H](CC(=O)O)NC(=O)[C@@H](Cc2c[nH]c3ccccc23)NC(=O)[C@H](CC(C)C)NC1=O [Example 31, cyclo(-DTrp-DAsp-Pro-DIle-Leu-)] (cyclo(L[dW][dD]P[dI]))	80%
CCCC[C@H]1NC(=O)[C@@H]2CCCN2C(=O)[C@@H](CC(=O)O)NC(=O)[C@@H](Cc2c[nH]c3ccccc23)NC(=O)[C@H](CC(C)C)NC1=O [Example 33, cyclo(-DTrp-DAsp-Pro-DNle-Leu-)] (cyclo(L[dW][dD]P[dNle]))	77%
CC(C)C[C@@H]1NC(=O)[C@@H](c2ccccc2)NC(=O)[C@@H]2CCCN2C(=O)[C@@H](CC(=O)O)NC(=O)[C@@H](Cc2c[nH]c3ccccc23)NC1=O [Example 34, cyclo(-DTrp-DAsp-Pro-DPhg-Leu-)] (cyclo(L[dW][dD]P[dPhg]))	83%
CCC[C@H]1NC(=O)[C@@H]2CCCN2C(=O)[C@@H](CC(=O)O)NC(=O)[C@@H](Cc2c[nH]c3ccccc23)NC(=O)[C@H](CC(C)C)NC1=O [Example 35, cyclo(-DTrp-DAsp-Pro-DNva-Leu-)] (cyclo(L[dW][dD]P[dNva]))	79%
